Laboratory results reported in the supplement of paper PMC11451515.

Tested on: P12-Ichikawa
Assay: cell viability relative to DMSO control; higher = less cytotoxic
Details: 48 h
How it was run: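 Library compounds in DMSO were pin-dosed in an 11-point threefold series (47 μM to 0.79 nM) onto leukemia cells in 1536-well plates (5 μl). Plates held 500 cells/well of NOMO1 or SEM or 1000 cells/well of P12-Ichikawa, each adapted for at least four passages in each medium. Luminescence was read with CellTiter-Glo One after 48 h at 37°C. Viability means the per-plate percentage relative to DMSO wells, using cell-free wells as background.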

[1] = HPLM + 10% dialyzed FBS, 0.000781 µM
[2] = HPLM + 10% dialyzed FBS, 0.00234 µM
[3] = HPLM + 10% dialyzed FBS, 0.00702 µM
[4] = HPLM + 10% dialyzed FBS, 0.0211 µM
[5] = HPLM + 10% dialyzed FBS, 0.0632 µM
[6] = HPLM + 10% dialyzed FBS, 0.19 µM
[7] = HPLM + 10% dialyzed FBS, 0.569 µM
[8] = HPLM + 10% dialyzed FBS, 1.71 µM
[9] = HPLM + 10% dialyzed FBS, 5.12 µM
[10] = HPLM + 10% dialyzed FBS, 15.4 µM
[11] = HPLM + 10% dialyzed FBS, 46.1 µM
[12] = RPMI 5 mM glucose + 10% FBS, 0.000781 µM
[13] = RPMI 5 mM glucose + 10% FBS, 0.00234 µM
[14] = RPMI 5 mM glucose + 10% FBS, 0.00702 µM
[15] = RPMI 5 mM glucose + 10% FBS, 0.0211 µM
[16] = RPMI 5 mM glucose + 10% FBS, 0.0632 µM
[17] = RPMI 5 mM glucose + 10% FBS, 0.19 µM
[18] = RPMI 5 mM glucose + 10% FBS, 0.569 µM
[19] = RPMI 5 mM glucose + 10% FBS, 1.71 µM
[20] = RPMI 5 mM glucose + 10% FBS, 5.12 µM
[21] = RPMI 5 mM glucose + 10% FBS, 15.4 µM
[22] = RPMI 5 mM glucose + 10% FBS, 46.1 µM
[23] = RPMI 5 mM glucose + 10% dialyzed FBS, 0.000781 µM
[24] = RPMI 5 mM glucose + 10% dialyzed FBS, 0.00234 µM
[25] = RPMI 5 mM glucose + 10% dialyzed FBS, 0.00702 µM
[26] = RPMI 5 mM glucose + 10% dialyzed FBS, 0.0211 µM
[27] = RPMI 5 mM glucose + 10% dialyzed FBS, 0.0632 µM
[28] = RPMI 5 mM glucose + 10% dialyzed FBS, 0.19 µM
[29] = RPMI 5 mM glucose + 10% dialyzed FBS, 0.569 µM
[30] = RPMI 5 mM glucose + 10% dialyzed FBS, 1.71 µM
[31] = RPMI 5 mM glucose + 10% dialyzed FBS, 5.12 µM
[32] = RPMI 5 mM glucose + 10% dialyzed FBS, 15.4 µM
[33] = RPMI 5 mM glucose + 10% dialyzed FBS, 46.1 µM

`CC(=O)Nc1ccc([C@H](C)C(=O)Nc2ncc(C(C)C)s2)cc1` was tested, and the cell viability [1] was 97.9%, the cell viability [2] was 101% and the cell viability [3] was 94.5%. For the same molecule, the cell viability [4] was 98.4%, the cell viability [5] was 100% and the cell viability [6] was 92.1%. It also gave a cell viability [7] of 96.7%, a cell viability [8] of 94.4% and a cell viability [9] of 89.9%. It also gave a cell viability [10] of 24.6%, a cell viability [11] of 5.24% and a cell viability [12] of 95.6%. The cell viability [13] was 96.9%, the cell viability [14] was 101% and the cell viability [15] was 95.1%. For the same molecule, the cell viability [16] was 93.3%, the cell viability [17] was 93.8% and the cell viability [18] was 97.6%. For the same molecule, the cell viability [19] was 107%, the cell viability [20] was 101% and the cell viability [21] was 26%. The cell viability [22] was 6.22%, the cell viability [23] was 99.3% and the cell viability [24] was 89.5%. It also gave a cell viability [25] of 97.2%, a cell viability [26] of 99.5% and a cell viability [27] of 110%. The cell viability [28] was 101%, the cell viability [29] was 99.4% and the cell viability [30] was 99.7%. For the same molecule, the cell viability [31] was 83.7%, the cell viability [32] was 22.8% and the cell viability [33] was 5.31%.
Work on `NC(=O)c1ncn([C@@H]2O[C@H](CO)[C@@H](O)[C@H]2O)n1` yielded a cell viability [1] of 122%, a cell viability [2] of 120% and a cell viability [3] of 102%. It also gave a cell viability [4] of 109%, a cell viability [5] of 110% and a cell viability [6] of 118%. For the same molecule, the cell viability [7] was 116%, the cell viability [8] was 111% and the cell viability [9] was 96.3%. For the same molecule, the cell viability [10] was 82%, the cell viability [11] was 76.1% and the cell viability [12] was 116%. The cell viability [13] was 121%, the cell viability [14] was 115% and the cell viability [15] was 123%. It also gave a cell viability [16] of 122%, a cell viability [17] of 103% and a cell viability [18] of 112%. It also gave a cell viability [19] of 104%, a cell viability [20] of 88.3% and a cell viability [21] of 79.4%. It also gave a cell viability [22] of 62.8%, a cell viability [23] of 115% and a cell viability [24] of 107%. For the same molecule, the cell viability [25] was 123%, the cell viability [26] was 115% and the cell viability [27] was 120%. It also gave a cell viability [28] of 100%, a cell viability [29] of 106% and a cell viability [30] of 105%. The cell viability [31] was 82.4%, the cell viability [32] was 69.3% and the cell viability [33] was 62.5%.
For `Cc1ncc(OC[C@@]2(c3cccc(F)c3)C[C@H]2C(=O)Nc2ccc(F)cn2)c(C)n1`, the cell viability [1] was 104%, the cell viability [2] was 101% and the cell viability [3] was 104%. It also gave a cell viability [4] of 104%, a cell viability [5] of 105% and a cell viability [6] of 111%. For the same molecule, the cell viability [7] was 114%, the cell viability [8] was 102% and the cell viability [9] was 102%. It also gave a cell viability [10] of 103%, a cell viability [11] of 13.4% and a cell viability [12] of 107%. For the same molecule, the cell viability [13] was 107%, the cell viability [14] was 108% and the cell viability [15] was 112%. It also gave a cell viability [16] of 110%, a cell viability [17] of 106% and a cell viability [18] of 106%. It also gave a cell viability [19] of 107%, a cell viability [20] of 107% and a cell viability [21] of 106%. The cell viability [22] was 97.3%, the cell viability [23] was 111% and the cell viability [24] was 108%. It also gave a cell viability [25] of 119%, a cell viability [26] of 113% and a cell viability [27] of 108%. For the same molecule, the cell viability [28] was 121%, the cell viability [29] was 116% and the cell viability [30] was 115%. For the same molecule, the cell viability [31] was 117%, the cell viability [32] was 106% and the cell viability [33] was 96.2%.
